What all share (type): cell-based
For one assay, the system named is Kv1.3. As to the kind of experiment: microelectrode voltage-clamp, Xenopus laevis oocytes, Kv1.3. As to conditions: 10 μM, 300-ms depolarization to +20 mV from -90 mV, pH 7.5, 19-23°C, n = 3. Here is the method:
(§1) Briefly, plasmids were linearized, and transcription was carried out according to the standardized protocol. Afterwards, the capped cRNAs that encoded the related ion channels were prepared. To conduct transcription in vitro, firstly, NotL was utilized to linearize plasmids pCI that contained both Kv1.1 (Accession: NM_010595.3) and Kv2.1 (Accession: AF026005.1), whereas SphI was adopted to linearize plasmid PcDNA3 containing Kv1.2 (Accession: NM_012970.3) gene. […] Thereafter, the linearized plasmids were used as the templates to synthesize cRNAs in vitro using the large-scale T7 mMESSAGE mMACHINE transcription kit (Ambion, USA).
(§2) A mature female X. laevis was placed on the ice for anesthesia, and then the Xenopus laevis oocytes at stage IV-VI were extracted. Subsequently, those extracted oocytes were treated by collagenase (1 mg/mL) contained within the calcium-depleted ND96 solution (containing 96 mM NaCl, 10 mM HEPES, 1 mM MgCl2, and 2 mM KCl) for defolliculation. […]
(§3) Firstly, the effects of JZTX-X on the isoforms of potassium channels (including Kv1.1-1.3, Kv2.1, as well as Kv4.2-4.3) contained within the X. laevis oocytes were investigated through the microelectrode voltage-clamp approach. […] We also determined the effects of JZTX-X on Ito potassium channels in rat DRG neurons; those current amplitudes were inhibited by 54.4±6.8% when 500 nM JZTX-X was applied (Fig. 3K, n = 5).

A further assay concerns Kv1.1. As to the kind of experiment: microelectrode voltage-clamp, Xenopus laevis oocytes, Kv1.1. As to conditions: 10 μM, 300-ms depolarization to +20 mV from -90 mV, pH 7.5, 19-23°C, n = 3. Here is the method: as §1, §2, §3
For the next assay, the target named is T1, Kv4.2 (Rattus norvegicus, UniProt Q63881).
T1 construct: expressed in transfected cells; host or cells: HEK293t
T1 sequence (Q63881 1-630): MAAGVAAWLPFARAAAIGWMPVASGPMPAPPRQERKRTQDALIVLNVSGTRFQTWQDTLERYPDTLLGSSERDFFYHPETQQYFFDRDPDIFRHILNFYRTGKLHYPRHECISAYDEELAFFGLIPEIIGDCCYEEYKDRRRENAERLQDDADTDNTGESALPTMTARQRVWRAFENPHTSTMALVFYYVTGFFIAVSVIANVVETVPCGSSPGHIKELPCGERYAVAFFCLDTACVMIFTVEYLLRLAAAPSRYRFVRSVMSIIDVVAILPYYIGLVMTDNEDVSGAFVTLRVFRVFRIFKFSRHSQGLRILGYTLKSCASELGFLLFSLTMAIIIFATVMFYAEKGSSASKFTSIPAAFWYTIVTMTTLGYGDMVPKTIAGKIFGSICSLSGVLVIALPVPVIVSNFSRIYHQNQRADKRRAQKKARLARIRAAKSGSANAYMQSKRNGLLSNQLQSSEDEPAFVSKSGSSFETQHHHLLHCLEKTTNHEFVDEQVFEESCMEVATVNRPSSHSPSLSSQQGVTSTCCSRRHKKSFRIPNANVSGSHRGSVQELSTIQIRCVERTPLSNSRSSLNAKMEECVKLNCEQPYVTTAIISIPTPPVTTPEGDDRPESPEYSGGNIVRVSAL
Nature of the assay: microelectrode voltage-clamp, Xenopus laevis oocytes, Kv4.2. As to conditions: +20 mV from -90 mV, n = 5, read-out: inhibition of Kv4.2 current. From the text:
Rat cDNA genes encoding Kv4.2 (Accession: NM_031730.2) and Kv4.3 (Accession: AB003587.1) were subcloned to vector pcDNA3.1. In addition, human cDNA genes encoding Nav1.7 (Accession: DQ857292.1) and Nav1.5 (Accession: AB158469.2) were subcloned to vectors pcDNA3.1-mod and pcDNA3.1, separately. Then, Kv4.2, Kv4.3, Nav1.5 and Nav1.7 constructs were transiently transfected into the human embryonic kidney 293t (HEK293t) cells using lipofectamine 2000 (Invitrogen, USA) in accordance with manufacturer protocols. Thereafter, HEK293 cells were inoculated within Dulbecco’s modified Eagle’s medium (DMEM) containing 10% fetal bovine serum (FBS) at 5% CO2 and 37°C. The Kv4.3 channel and the Kv4.2 counterpart were then transfected in the absence of β subunit. Subsequently, cells were incubated with a DNA-lipofectamine mixture (one reporter plasmid for green fluorescence protein and channel constructs) for 4-6 h, and were washed with the fresh medium.
Briefly, plasmids were linearized, and transcription was carried out according to the standardized protocol. Afterwards, the capped cRNAs that encoded the related ion channels were prepared. […]

The structures appear in SMILES notation. Where a SMILES comes first, the peptide text is derived from it. Bridges are numbered along the chain shown (N, C = ends).

As a reminder, the inhibition is the change of the read-out against control, counted positive when it falls. With `CC(C)C[C@@H]1NC(=O)[C@H](CCCCN)NC(=O)[C@H](Cc2ccc(O)cc2)NC(=O)[C@@H]2CSSC[C@@H]3NC(=O)[C@H](Cc4ccc(O)cc4)NC(=O)[C@H](Cc4ccccc4)NC(=O)CNC(=O)[C@H](C)NC(=O)[C@H](CSSC[C@H](NC(=O)[C@@H](N)CC(C)C)C(=O)N[C@@H](CO)C(=O)N[C@@H](CCCNC(=N)N)C(=O)N[C@@H](CCC(=O)O)C(=O)NCC(=O)N[C@@H](CCC(=O)O)C(=O)N[C@@H](Cc4ccccc4)C(=O)N2)NC(=O)[C@H](CSSC[C@@H](C(=O)N[C@@H](Cc2ccc(O)cc2)C(=O)N[C@@H](CCCNC(=N)N)C(=O)N[C@@H](CC(N)=O)C(=O)O)NC(=O)[C@H](Cc2c[nH]cn2)NC(=O)[C@H](CC(C)C)NC(=O)[C@H](C(C)C)NC(=O)[C@H](Cc2ccccc2)NC(=O)[C@H](C)NC(=O)[C@H](CCCCN)NC3=O)NC(=O)[C@H](CCCCN)NC(=O)[C@H](CCCNC(=N)N)NC1=O` [JZTX-X, Jingzhaotoxin-X] (H-LCSREGEFCYKLRKCCAGFYCKAFVLHCYRN-OH; disulfide 2-16, 9-21, 15-28; N-terminus assumed), the “inhibition of Kv1.3 current” value in the assay with Kv1.3 is listed as “less than 5%”. The “inhibition of Kv1.1 current” value in the assay on Kv1.1 is listed as “less than 5%”. Also, on Kv4.2 (0.1 μM (100 nM)), the inhibition at 0.1 µM came to 57.8 ± 4.6%. Further, the inhibition at 0.5 µM on Kv4.2 (0.5 μM (500 nM)) was found to be 83.8 ± 5.1%.

These data come from PMC7269146, “Jingzhaotoxin-X, a gating modifier of Kv4.2 and Kv4.3 potassium channels purified from the venom of the Chinese tarantula Chilobrachys jingzhao” (The Journal of Venomous Animals and Toxins Including …, 2020).
